Assay results: patent publication US4864023A, “Pyrido(3,2,1-IJ)-1,3,4-benzoxadiazine derivatives” (priority 1988, dated 1989)
In brackets after ≈: the same amount, converted by molar mass. Counter-ions that a name gives are not always drawn. Like-named read-outs stand apart in the source and are kept apart here.

Legend:
[1] = test system: Escherichia coli NIHJ JC-2; assay: in vitro antibacterial activity, standard agar dilution method; format: cell-based; conditions: NIHJJC2, aerobic, read-out: minimum inhibitory concentration (MIC)
[2] = test system: Proteus rettgeri ATCC 14505; assay: as above; format: cell-based; conditions: Providencia rettgeri, ATCC14505, aerobic, read-out: minimum inhibitory concentration (MIC)
[3] = test system: Bacillus subtilis PCI 219; assay: as above; format: cell-based; conditions: PCI219, aerobic, read-out: minimum inhibitory concentration (MIC)
[4] = test system: Enterobacter cloacae NR 2946; assay: as above; format: cell-based; conditions: NR2946, aerobic, read-out: minimum inhibitory concentration (MIC)
[5] = test system: Serratia marcescens IFO 12648; assay: as above; format: cell-based; conditions: IFO12648, aerobic, read-out: minimum inhibitory concentration (MIC)
[6] = test system: Pseudomonas stutzeri IFO 12695; assay: as above; format: cell-based; conditions: Stutzerimonas stutzeri, IFO12695, aerobic, read-out: minimum inhibitory concentration (MIC)
[7] = test system: Enterococcus faecalis NR 2943; assay: as above; format: cell-based; conditions: NR2943, aerobic, read-out: minimum inhibitory concentration (MIC)
[8] = test system: Citrobacter freundii IFO 12681; assay: as above; format: cell-based; conditions: IFO12681, aerobic, read-out: minimum inhibitory concentration (MIC)
[9] = test system: Escherichia coli NR 2630; assay: as above; format: cell-based; conditions: NR2630; Escherichia coli NR 2630; aerobic; agar dilution; read-out: minimum inhibitory concentration (MIC)
[10] = acute toxicity by oral administration; conditions: mouse, in vivo; oral administration, ICR mice; read-out: LD50
From the text: The acute toxicity of these compounds was examined by oral administration in ICR mice.

[11] = test system: Staphylococcus epidermidis NR 2942; assay: in vitro antibacterial activity, standard agar dilution method; format: cell-based; conditions: NR2942, aerobic, read-out: minimum inhibitory concentration (MIC)
[12] = test system: Staphylococcus aureus NR 2855; assay: as above; format: cell-based; conditions: NR2855; Staphylococcus aureus NR 2855; aerobic; agar dilution; read-out: minimum inhibitory concentration (MIC)
[13] = test system: Bordetella bronchiseptica ATCC 4617; assay: as above; format: cell-based; conditions: ATCC4617, aerobic, read-out: minimum inhibitory concentration (MIC)
[14] = test system: Alcaligenes faecalis IFO 13111; assay: as above; format: cell-based; conditions: IFO13111, aerobic, read-out: minimum inhibitory concentration (MIC)
[15] = test system: Staphylococcus aureus Smith; assay: as above; format: cell-based; conditions: read-out: minimum inhibitory concentration (MIC)
[16] = test system: Proteus vulgaris OX19 ATCC 6898; assay: as above; format: cell-based; conditions: ATCC6898, aerobic, read-out: minimum inhibitory concentration (MIC)
[17] = test system: Pseudomonas aeruginosa A3; assay: as above; format: cell-based; conditions: aerobic, read-out: minimum inhibitory concentration (MIC)
[18] = test system: Salmonella typhimurium IFO 12529; assay: as above; format: cell-based; conditions: Salmonella enterica, aerobic, read-out: minimum inhibitory concentration (MIC)
[19] = test system: Klebsiella pneumoniae FDA PCI 602; assay: as above; format: cell-based; conditions: FDAPCI602, aerobic, read-out: minimum inhibitory concentration (MIC)
[20] = test system: Staphylococcus aureus FDA 209P JC-1; assay: as above; format: cell-based; conditions: FDA209P, read-out: minimum inhibitory concentration (MIC)
[21] = test system: Enterobacter aerogenes NR 2945; assay: as above; format: cell-based; conditions: Klebsiella aerogenes, NR2945, aerobic, read-out: minimum inhibitory concentration (MIC)
[22] = test system: Staphylococcus epidermidis IFO 12993; assay: as above; format: cell-based; conditions: IFO12993, aerobic, read-out: minimum inhibitory concentration (MIC)
[23] = test system: Pseudomonas aeruginosa NR 2950; assay: as above; format: cell-based; conditions: NR2950, aerobic, read-out: minimum inhibitory concentration (MIC)
[24] = test system: Escherichia coli ML4707; assay: in vivo therapeutic efficacy, lethal systemic infection in mice; conditions: E. coli ML4707 i.p. infection, ICR mice, p.o. at time of injection, mortality 5 days
Protocol: The in vivo antibacterial activities of pyrido[3,2,1-ij]-1,3,4-benzoxadiazine derivatives prepared by Example 5, Example 30, Example 65 and Example 66 as mentioned below were tested against lethal infection of Escherichia coli ML4707, Pseudomonas aeruginosa 4au542 and Streptococcus pneumoniae 6-001. ICR mice weighing about 20 g were infected by intraperitoneal injection of a corresponding bacterial suspension. The test compounds were administered orally or subcutaneously at the time of injection. […] The respective 50% effective dose (ED50, mg/kg) which protects 50% of the animals from death caused by infection, is shown in Table 3.

[25] = Staphylococcus aureus Smith, aerobic, agar dilution
[26] = Staphylococcus aureus FDA 209P JC-1, aerobic, agar dilution

SMILES | MIC [1] | MIC [2] | MIC [3] | MIC [4] | MIC [5] | MIC [6] | MIC [7] | MIC [8] | MIC [9] | LD50 [10] | MIC [11] | MIC [12] | MIC [13] | MIC [14] | MIC [16] | MIC [17] | MIC [18] | MIC [19] | MIC [21] | MIC [22] | further results
CNCC1CCN(c2c(F)cc3c(=O)c(C(=O)O)cn4c3c2OCN4C)C1 (stereo not shown) [Example 17, 9-fluoro-3-methyl-10-[3-[(methylamino)methyl]-1-pyrrolidinyl]-7-oxo-2,3-dihydro-7H-pyrido[3,2,1-ij]-1,3,4-benzoxadiazine-6-carboxylic acid] | 0.1 µg/mL (≈ 0.266 µM) | 1.56 µg/mL (≈ 4.14 µM) | 0.013 µg/mL (≈ 0.0345 µM) | 0.1 µg/mL (≈ 0.266 µM) | 0.78 µg/mL (≈ 2.07 µM) | 0.025 µg/mL (≈ 0.0664 µM) | 1.56 µg/mL (≈ 4.14 µM) | 0.2 µg/mL (≈ 0.531 µM) | 0.025 µg/mL (≈ 0.0664 µM) | > 2000 mg/kg | 0.1 µg/mL (≈ 0.266 µM) | 0.2 µg/mL (≈ 0.531 µM) | 6.25 µg/mL (≈ 16.6 µM) | 6.25 µg/mL (≈ 16.6 µM) | 0.025 µg/mL (≈ 0.0664 µM) | 0.39 µg/mL (≈ 1.04 µM) | 0.05 µg/mL (≈ 0.133 µM) | 0.78 µg/mL (≈ 2.07 µM) | 0.05 µg/mL (≈ 0.133 µM) | 0.2 µg/mL (≈ 0.531 µM) | MIC [15, 25]: 0.025 µg/mL (≈ 0.0664 µM); MIC [20, 26]: 0.05 µg/mL (≈ 0.133 µM); MIC [23]: 6.25 µg/mL (≈ 16.6 µM)
CCNCC1CCN(c2c(F)cc3c(=O)c(C(=O)O)cn4c3c2OCN4C)C1 (stereo not shown) [Example 18] | 0.05 µg/mL (≈ 0.128 µM) | 0.39 µg/mL (≈ 0.999 µM) | 0.013 µg/mL (≈ 0.0333 µM) | 0.05 µg/mL (≈ 0.128 µM) | 0.39 µg/mL (≈ 0.999 µM) | 0.025 µg/mL (≈ 0.064 µM) | 1.56 µg/mL (≈ 4 µM) | 0.1 µg/mL (≈ 0.256 µM) | 0.013 µg/mL (≈ 0.0333 µM) | > 2000 mg/kg | 0.1 µg/mL (≈ 0.256 µM) | 0.1 µg/mL (≈ 0.256 µM) | 3.13 µg/mL (≈ 8.02 µM) | 6.25 µg/mL (≈ 16 µM) | 0.025 µg/mL (≈ 0.064 µM) | 0.78 µg/mL (≈ 2 µM) | 0.025 µg/mL (≈ 0.064 µM) | 0.39 µg/mL (≈ 0.999 µM) | 0.05 µg/mL (≈ 0.128 µM) | 0.1 µg/mL (≈ 0.256 µM) | MIC [15, 25]: 0.025 µg/mL (≈ 0.064 µM); MIC [20, 26]: 0.05 µg/mL (≈ 0.128 µM); MIC [23]: 6.25 µg/mL (≈ 16 µM)
CC1CN(c2c(F)cc3c(=O)c(C(=O)O)cn4c3c2OCN4C)CCN1C (stereo not shown) [Example 36, 10-(3,4-dimethyl-1-piperazinyl)-9-fluoro-3-methyl-7-oxo-2,3-dihydro-7H-pyrido[3,2,1-ij]-1,3,4-benzoxadiazine-6-carboxylic acid] | 0.1 µg/mL (≈ 0.266 µM) | 0.78 µg/mL (≈ 2.07 µM) | 0.025 µg/mL (≈ 0.0664 µM) | 0.1 µg/mL (≈ 0.266 µM) | 0.39 µg/mL (≈ 1.04 µM) | 0.1 µg/mL (≈ 0.266 µM) | 3.13 µg/mL (≈ 8.32 µM) | 0.2 µg/mL (≈ 0.531 µM) | 0.05 µg/mL (≈ 0.133 µM) | > 2000 mg/kg | 0.2 µg/mL (≈ 0.531 µM) | 0.1 µg/mL (≈ 0.266 µM) | 0.39 µg/mL (≈ 1.04 µM) | 3.13 µg/mL (≈ 8.32 µM) | 0.025 µg/mL (≈ 0.0664 µM) | 0.78 µg/mL (≈ 2.07 µM) | 0.1 µg/mL (≈ 0.266 µM) | 0.39 µg/mL (≈ 1.04 µM) | 0.05 µg/mL (≈ 0.133 µM) | 0.2 µg/mL (≈ 0.531 µM) | MIC [15, 25]: 0.1 µg/mL (≈ 0.266 µM); MIC [20, 26]: 0.39 µg/mL (≈ 1.04 µM); MIC [23]: 6.25 µg/mL (≈ 16.6 µM)
CN1COc2c(-n3ccnc3)c(F)cc3c(=O)c(C(=O)O)cn1c23 [Example 56, 9-fluoro-10-(1-imidazolyl)-3-methyl-7-oxo-2,3-dihydro-7H-pyrido[3,2,1-ij]-1,3,4-benzoxadiazine-6-carboxylic acid] | 0.1 µg/mL (≈ 0.303 µM) | 1.56 µg/mL (≈ 4.72 µM) | 0.2 µg/mL (≈ 0.606 µM) | 0.05 µg/mL (≈ 0.151 µM) | 0.78 µg/mL (≈ 2.36 µM) | 0.0033 µg/mL (≈ 0.00999 µM) | 12.5 µg/mL (≈ 37.8 µM) | 0.1 µg/mL (≈ 0.303 µM) | 0.0065 µg/mL (≈ 0.0197 µM) | > 2000 mg/kg | 0.39 µg/mL (≈ 1.18 µM) | 0.78 µg/mL (≈ 2.36 µM) | 3.13 µg/mL (≈ 9.48 µM) | 3.13 µg/mL (≈ 9.48 µM) | 0.013 µg/mL (≈ 0.0394 µM) | 3.13 µg/mL (≈ 9.48 µM) | 0.05 µg/mL (≈ 0.151 µM) | 0.39 µg/mL (≈ 1.18 µM) | 0.1 µg/mL (≈ 0.303 µM) | 0.39 µg/mL (≈ 1.18 µM) | MIC ([15]; Staphylococcus aureus): 0.39 µg/mL (≈ 1.18 µM); MIC ([20]; Staphylococcus aureus): 0.39 µg/mL (≈ 1.18 µM); MIC [23]: 6.25 µg/mL (≈ 18.9 µM)
CCOC(=O)c1cn2c3c(c(N4CCC(N)C4)c(F)cc3c1=O)OCN2C (stereo not shown) [Example 65, ethyl 10-(3-amino-1-pyrrolidinyl)-9-fluoro-3-methyl-7-oxo-2,3-dihydro-7H-pyrido[3,2,1-ij]-1,3,4-benzoxadiazine-6-carboxylate] |  |  |  |  |  |  |  |  |  |  |  |  |  |  |  |  |  |  |  |  | ED50 ([24]; Escherichia coli, ML4707, po, 120 h, read-out: 50% effective dose (ED50)): 1.12 mg/kg
CN1COc2c(N3CCC(N)C3)c(F)cc3c(=O)c(C(=O)O)cn1c23 (stereo not shown) [Example 66, 10-(3-amino-1-pyrrolidinyl)-9-fluoro-3-methyl-7-oxo-2,3-dihydro-7H-pyrido[3,2,1-ij]-1,3,4-benzoxadiazine-6-carboxylic acid hydrochloride] |  |  |  |  |  |  |  |  |  |  |  |  |  |  |  |  |  |  |  |  | 50% effective dose (ED50) ([24]; hydrochloride, 7200 min): 0.51 mg/kg
